These results are taken from PubChem BioAssay (NCI).

Test systems include MDA-MB-231 breast; MDA-MB-435; HS 578T breast; SNB-78 CNS; MDA-N.
What all share (test): NCI tumour cell line growth inhibition, 48 h

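Each compound was tested at five concentrations against cells in 96-well plates for 48 hours. Abbreviation: GI50, concentration required for 50% inhibition of growth. At the TGI there is no net growth.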 Some results are limits rather than exact numbers.

`CC1(C)OC2C(CO[Si](C)(C)C(C)(C)C)OC(n3c(I)c(C#C[Si](C)(C)C)c(=O)[nH]c3=O)C2O1` (stereo not given): the values for the GI50 in the assay with MDA-MB-231 breast, in the assay with MDA-MB-435 and in the assay with HS 578T breast were 4.22 µM, 15.7 µM and 16.8 µM, respectively. In addition, the figures for the TGI with MDA-MB-231 breast, with MDA-MB-435 and with HS 578T breast were 17 µM, 44.3 µM and 51.1 µM, respectively.
`Nc1ncn([C@@H]2O[C@H](CO)[C@@H](O)[C@H]2O)c(=O)n1`: in the assay with MDA-MB-231 breast, the GI50 is 1.61 µM and the TGI was greater than 100 µM.
In the case of `COc1ccc(-c2nnc3n(C)c(=O)c4ccccc4n23)cc1N`, the GI50 in the assay with MDA-MB-231 breast was 3.92 µM; in the assay with MDA-MB-435, 0.0226 µM; in the assay on HS 578T breast, 4.43 µM. The results for the TGI with MDA-MB-231 breast, in the assay on MDA-MB-435 and in the assay on HS 578T breast were greater than 100 µM, 0.0799 µM and greater than 100 µM, respectively.
Consider `COc1cc(N=Nc2ccc(O)c3ncccc23)c2ncccc2c1`, for which the GI50 is 3.16 µM in the assay on MDA-MB-231 breast, 4.64 µM in the assay with MDA-MB-435 and 4.67 µM in the assay with HS 578T breast. Moreover, the TGI in the assay with MDA-MB-231 breast, with MDA-MB-435 and in the assay with HS 578T breast was greater than 100 µM throughout.
Molecule `O=[N+]([O-])c1ccc2occ3c2c1CCC3` came in with a TGI in the assay on SNB-78 CNS greater than 100 µM.
Turning to `O=C(Cc1ccc(F)c(Cl)c1)Nc1cc(C2(C(F)(F)F)CC2)nn1CC1CCCCC1`, the GI50 with MDA-MB-231 breast is 2.82 µM; with MDA-MB-435 it was 3.85 µM; in the assay with HS 578T breast it was 2.13 µM. In addition, the TGI with MDA-MB-231 breast stood at 6.68 µM; in the assay on MDA-MB-435, 11.7 µM; in the assay on HS 578T breast, 9.45 µM.
As for `N=c1c2c(-c3ccccc3)c(-c3ccccc3)n(Cc3ccccc3)c2ncn1C1CCC(O)CC1` (stereo not given), the GI50 is 1.29 µM in the assay on MDA-MB-231 breast, 0.346 µM in the assay with MDA-MB-435 and 1.57 µM with HS 578T breast. Further, the TGI with MDA-MB-231 breast worked out at 4.65 µM; in the assay on MDA-MB-435, 4.89 µM; with HS 578T breast it was 23.8 µM.
For `O=c1oc2ccc(-c3ccc(F)cc3F)cc2c(=O)n1-c1cccc(C(F)(F)F)c1`, the results for the GI50 in the assay with MDA-MB-231 breast, with MDA-MB-435 and with HS 578T breast were 2.08 µM, 1.44 µM and 1.3 µM, respectively. Moreover, the TGI was 7.37 µM with MDA-MB-231 breast, 8.04 µM in the assay on MDA-MB-435 and 7.28 µM in the assay with HS 578T breast.
In the case of `CC(=O)Nc1ccc(-c2csc(Nc3cccc(-c4csc(C)n4)c3)n2)cc1`, the figures for the GI50 in the assay with MDA-MB-231 breast, with MDA-MB-435 and with HS 578T breast were 1.28 µM, 0.23 µM and 3.83 µM, respectively. The TGI in the assay on MDA-MB-231 breast was 5.07 µM; with HS 578T breast, greater than 30.4 µM.
Consider `O=C(c1ccco1)c1c(C(F)(F)F)nc2ccc(Cl)cc2[n+]1[O-]`, for which the GI50 in the assay with MDA-MB-231 breast was greater than 100 µM; with MDA-MB-435 it was greater than 100 µM; with HS 578T breast, 19.8 µM. In addition, the TGI is greater than 100 µM with MDA-MB-231 breast, greater than 100 µM in the assay on MDA-MB-435 and 51.4 µM with HS 578T breast.
Regarding `CN(C)CC[C@H](CSc1ccccc1)Nc1ccc(S(=O)(=O)NC(=O)c2ccc(N3CCN(Cc4ccccc4-c4ccc(Cl)cc4)CC3)cc2)cc1[N+](=O)[O-]`, the GI50 in the assay with MDA-MB-231 breast is 1.55 µM; in the assay on MDA-MB-435, 2.47 µM; in the assay with HS 578T breast, 6.87 µM. Besides, the TGI is 3.5 µM in the assay on MDA-MB-231 breast, greater than 34.6 µM in the assay with MDA-MB-435 and greater than 100 µM in the assay with HS 578T breast.
On to `COc1ccc(-c2ccc(=O)oc2C#Cc2cc(OC)c(OC)c(OC)c2)cc1O`, for which, in the assay with MDA-MB-231 breast, the GI50 was 0.905 µM and the TGI stood at 10.1 µM. In the assay with HS 578T breast, the GI50 was 0.696 µM and the TGI is greater than 100 µM.
With `COc1cc(C(=O)N2CCN(C(=O)c3cc(OC)c(OC)c(OC)c3)C2=S)cc(OC)c1OC`, the GI50 is 16.7 µM in the assay with MDA-MB-231 breast, 13.1 µM in the assay on MDA-MB-435, 15 µM with MDA-N and 24.7 µM with HS 578T breast. Further, the TGI in the assay with MDA-MB-231 breast was 36 µM; in the assay on MDA-MB-435, 28.8 µM; in the assay on MDA-N it was 33.9 µM; with HS 578T breast, greater than 100 µM.
Turning to `COc1ccc(C(=O)Nc2ccc(O)c(=O)cc2)cc1`, the TGI with MDA-MB-231 breast, in the assay with MDA-MB-435 and in the assay on HS 578T breast was greater than 100 µM in each case.
As for `CN1CCN(c2ccc(Nc3cc(-c4cccc(-n5ccc6cc(C7CC7)cc(F)c6c5=O)c4CO)cn(C)c3=O)nc2)CC1`, the results for the GI50 in the assay on MDA-MB-231 breast, in the assay with MDA-MB-435 and with HS 578T breast were 2.26 µM, 3.28 µM and 4.99 µM, respectively. The results for the TGI in the assay on MDA-MB-231 breast, in the assay on MDA-MB-435 and in the assay on HS 578T breast were 6.17 µM, 14 µM and 25.3 µM, respectively.
Turning to `CCN(CC)CCNc1nc(N)c(C#N)c(C#N)c1C#N`, the TGI with MDA-MB-231 breast, in the assay with MDA-MB-435, in the assay with MDA-N and with HS 578T breast was greater than 10 µM in each case.
For `O=C(Nc1cccc(C(F)(F)F)c1)c1ccc(NC2=C(Cl)C(=O)N(Cc3ccc(Cl)cc3Cl)C2=O)cc1`, the values for the GI50 with MDA-MB-231 breast, in the assay on MDA-MB-435 and in the assay with HS 578T breast were 12.5 µM, 16.1 µM and 2.88 µM, respectively. For the same molecule, the TGI is 27.6 µM with MDA-MB-231 breast, 32.4 µM in the assay on MDA-MB-435 and 8.26 µM with HS 578T breast.
As for `O=C(/C=C/c1ccc[nH]1)c1ccc(-n2ccc(C(F)(F)F)n2)cc1`, the GI50 in the assay with MDA-MB-231 breast, in the assay with MDA-MB-435 and with HS 578T breast was greater than 100 µM throughout. Also, the TGI in the assay on MDA-MB-231 breast, with MDA-MB-435 and in the assay on HS 578T breast was greater than 100 µM in each case.
As to `COC(=O)[C@]12CC[C@@H](C)[C@H](C)[C@@H]1C1=CC[C@@H]3[C@@]4(C)C[C@@H](O)[C@H](O)[C@@](C)(CO)C4=CC[C@@]3(C)[C@]1(C)CC2`, the GI50 with MDA-MB-231 breast was 16.3 µM; with MDA-MB-435 it was 15.4 µM; in the assay with HS 578T breast it was 17.9 µM. The TGI amounted to 34.4 µM with MDA-MB-231 breast, 30.3 µM in the assay on MDA-MB-435 and 36.4 µM with HS 578T breast.
As for `COc1cnc2c(c1)C(=O)c1c-2n(CCCNC2=NCCS2)c(=O)c2cc([N+](=O)[O-])ccc12`, the GI50 with MDA-MB-435 was 0.478 µM; with HS 578T breast, 1.82 µM. The TGI is 2.29 µM with MDA-MB-435 and 4.54 µM in the assay with HS 578T breast.
Regarding `O=c1c(F)cn(Cc2ccc(C34CC5CC(CC(C5)C3)C4)c(O)c2)c(=O)n1Cc1ccc(C23CC4CC(CC(C4)C2)C3)c(O)c1`, the GI50 is 12.3 µM in the assay with MDA-MB-231 breast, 14.4 µM in the assay on MDA-MB-435 and 11.5 µM in the assay with HS 578T breast. Also, the values for the TGI in the assay with MDA-MB-231 breast, in the assay on MDA-MB-435 and with HS 578T breast were 24.8 µM, 29.2 µM and 56.4 µM, respectively.
On to `Cc1nc(Nc2cccnc2)sc1C(=O)/C=C/c1ccc(F)cc1`, for which the GI50 in the assay with MDA-MB-231 breast is 4.03 µM; in the assay on MDA-MB-435 it was 2.71 µM; in the assay with HS 578T breast, 4.05 µM. For the same molecule, the TGI was greater than 100 µM in the assay on MDA-MB-231 breast, 11.2 µM in the assay with MDA-MB-435 and greater than 100 µM with HS 578T breast.
